Measured values reported in patent US20130280235A1, “METHODS OF DIAGNOSIS AND TREATMENT FOR METABOLIC DISORDERS” (DiaMedica Inc., priority 2006, published 2013).

Tests used:
Wistar rats = assay: Oral glucose challenge (2 g/kg) in fasted rats, serum glucose by enzymatic method (Mutaratase-GOD); type: in vivo, rat; details: male Wistar rats; for Blood Glucose at T0: fasted, agent given one hour before, sample immediately prior to oral glucose loading; for Blood Glucose at T90: 90 minutes post oral glucose challenge 2 g/kg; for Change in Blood Glucose: T0 to T90 after oral glucose 2 g/kg
Method: Groups of 5 male Wistar rats weighing 200+/−10 g were employed. Fasted animals were injected with agent or placebo (GLP-1, 1 nmole/kg, iv) and/or gavaged with agent or placebo (tissue kallikrein (SIGMA), 200 U) one hour prior to glucose challenge. A blood sample was taken immediately prior oral glucose loading (2 g/kg). At 90 minutes post glucose challenge a second blood sample was taken. The serum glucose samples were assessed by enzymatic method (Mutaratase-GOD) for the time points.

Sprague-Dawley rats = assay: Euglycemic hyperinsulinemic clamp in rats made insulin resistant by a high-sucrose diet; type: in vivo, rat; details: up to one unit by bolus IV injection, last hour of 2 h clamp, versus saline controls
Method: A litter of 14 Sprague-Dawley rats, (from Charles River, St-Constant, Canada), obtained at 5 weeks old are accommodated individually in cages. The animals are acclimatized to a temperature of 22° C.+/−1° C. and constant humidity and airflow conditions. The animals are fed a high sucrose diet. During the 2 weeks prior to experimentation, the animals have free access to tap water, are provided their controlled diet and their body weight and food intake are recorded every other day. The high-sucrose diet consists of 62.5% (wt/wt) sucrose, 6.5% corn oil, 20% protein (casein, purified high nitrogen), 0.3% dl-methionine, 1% vitamin mix, 4.7% mineral mix and 5% cellulose. The energy density of the high-sucrose diet is 16.81 kJ/g. This high-sucrose diet induces insulin resistance. […]
Analytical Methods—The rats are anesthetized and venous blood samples are taken for plasma glucose and insulin assessment and rapidly centrifuged. […] Resting heart rate, blood pressure and regional blood flows are recorded over 30 minutes in quiet, unrestrained and unsedated rats.
Euglycemic Clamp Methodology—All rats receive an infusion of regular porcine insulin at a rate of 16 mU·kg^−1·min^−1 for 2 hours. […] The Euglycemic hyperinsulinemic clamp is performed over 2 hours, while blood pressure, heart rate, and regional blood flow is measured continuously with blood samples. […]

| Substance | Blood Glucose at T0 (Wistar rats) [mg/dL] | Blood Glucose at T90 (Wistar rats) [mg/dL] | Change in Blood Glucose (Wistar rats) [mg/dL] | Area under the curve of glucose required to maintain euglycemia (index of insulin sensitivity) (Sprague-Dawley rats) |
| --- | --- | --- | --- | --- |
| tissue kallikrein [tissue kallkrein] | 109 | 229 | 120.2 ± 20.7 | – |
| glucagon like peptide 1 [GLP-1] | 110 | 216 | 116.1 ± 18.1 | – |
| kallikrein | – | – | – | greater area under the curve |
